ChEMBL document CHEMBL1149714 (2007)
≈ marks a conversion by molar mass, not a printed value.

What was measured:
Assay type in all cases: functional
[1] = test system: Escherichia coli; assay: Antibacterial activity against Escherichia coli NIHJJC2 after 20 hrs by agar dilution method
[2] = test system: Pseudomonas aeruginosa; assay: Antibacterial activity against AmpC hyperproducing Pseudomonas aeruginosa SR24-12 after 20 hrs by agar dilution method
[3] = test system: Enterobacter cloacae; assay: Antibacterial activity against AmpC producing Enterobacter cloacae SR-4321 after 20 hrs by agar dilution method
[4] = test system: Enterobacter cloacae; assay: Antibacterial activity against Enterobacter cloacae ATCC 13047 after 20 hrs by agar dilution method; conditions: ATCC 13047, 20 h
[5] = test system: Escherichia coli; assay: Antibacterial activity against Toho 2 (ESBL) producing Escherichia coli SR-21003 after 20 hrs by agar dilution method
[6] = test system: Pseudomonas aeruginosa; assay: Antibacterial activity against Pseudomonas aeruginosa SR24 after 20 hrs by agar dilution method
[7] = test system: Pseudomonas aeruginosa; assay: Antibacterial activity against Pseudomonas aeruginosa SR-5393 after 20 hrs by agar dilution method
[8] = test system: Pseudomonas aeruginosa; assay: Antibacterial activity against Imipenem resistant Pseudomonas aeruginosa SR-6554 after 20 hrs by agar dilution method
[9] = test system: Haemophilus influenzae; assay: Antibacterial activity against beta-lactamase negative ampicillin resistant Haemophilus influenzae SR-11435 after 20 hrs by agar dilution method
[10] = test system: Haemophilus influenzae; assay: Antibacterial activity against Haemophilus influenzae ATCC 49766 after 20 hrs by agar dilution method; conditions: ATCC 49766, 20 h
[11] = test system: Streptococcus pneumoniae; assay: Antibacterial activity against penicillin resistant Streptococcus pneumoniae SR-16675 after 20 hrs by agar dilution method
[12] = test system: Staphylococcus aureus; assay: Antibacterial activity against […] Staphylococcus aureus SMITH after 20 hrs by agar dilution method
[13] = test system: Moraxella catarrhalis; assay: Antibacterial activity against Moraxella catarrhalis ATCC 43617 after 20 hrs by agar dilution method; conditions: ATCC 43617, 20 h
[14] = test system: Pseudomonas aeruginosa; assay: Antibacterial activity against CAZ resistant Pseudomonas aeruginosa SR24-12 infected in mouse after 7 days; conditions: 168 h
[15] = test system: Pseudomonas aeruginosa; assay: Antibacterial activity against CAZ susceptible Pseudomonas aeruginosa SR24 infected in mouse after 7 days; conditions: 168 h

| Compound | MIC [1] | MIC [2] | MIC [3] | MIC [4] | MIC [5] | MIC [6] | MIC [7] | MIC [8] | MIC [9] | MIC [10] | MIC [11] | MIC [12] | MIC [13] | ED50 [14] | ED50 [15] |
| --- | --- | --- | --- | --- | --- | --- | --- | --- | --- | --- | --- | --- | --- | --- | --- |
| CNCCCn1cnc2c1ccc[n+]2CC1=C(C(=O)[O-])N2C(=O)[C@@H](NC(=O)/C(=N\OC(C)(C)C(=O)O)c3csc(N)n3)[C@H]2SC1 | 0.5 µg/mL (≈ 0.76 µM) | > 128 µg/mL | 128 µg/mL (≈ 195 µM) | 4 µg/mL (≈ 6.08 µM) | 2 µg/mL (≈ 3.04 µM) | 1 µg/mL (≈ 1.52 µM) | 4 µg/mL (≈ 6.08 µM) | 128 µg/mL (≈ 195 µM) | – | – | – | – | – | – | – |
| CNCCCn1ccc2c1ccc[n+]2CC1=C(C(=O)[O-])N2C(=O)[C@@H](NC(=O)/C(=N\O[C@@H](CO)C(=O)O)c3nc(N)sc3Cl)[C@H]2SC1 | 0.25 µg/mL (≈ 0.361 µM) | 4 µg/mL (≈ 5.77 µM) | 2 µg/mL (≈ 2.89 µM) | 0.25 µg/mL (≈ 0.361 µM) | 2 µg/mL (≈ 2.89 µM) | 1 µg/mL (≈ 1.44 µM) | 4 µg/mL (≈ 5.77 µM) | 16 µg/mL (≈ 23.1 µM) | 0.125 µg/mL (≈ 0.18 µM) | 0.063 µg/mL (≈ 0.0909 µM) | 8 µg/mL (≈ 11.5 µM) | 2 µg/mL (≈ 2.89 µM) | 0.032 µg/mL (≈ 0.0462 µM) | – | – |
| CNCCCn1ccc2c1ccc[n+]2CC1=C(C(=O)[O-])N2C(=O)[C@@H](NC(=O)/C(=N\O[C@@H](C)C(=O)O)c3nsc(N)n3)[C@H]2SC1 | 0.031 µg/mL (≈ 0.0482 µM) | 16 µg/mL (≈ 24.9 µM) | 8 µg/mL (≈ 12.4 µM) | 0.25 µg/mL (≈ 0.388 µM) | 8 µg/mL (≈ 12.4 µM) | 0.5 µg/mL (≈ 0.777 µM) | 2 µg/mL (≈ 3.11 µM) | 4 µg/mL (≈ 6.21 µM) | 0.25 µg/mL (≈ 0.388 µM) | 0.031 µg/mL (≈ 0.0482 µM) | 4 µg/mL (≈ 6.21 µM) | 2 µg/mL (≈ 3.11 µM) | 0.5 µg/mL (≈ 0.777 µM) | – | – |
| CNCCCn1ccc2c1ccc[n+]2CC1=C(C(=O)[O-])N2C(=O)[C@@H](NC(=O)/C(=N\OC(C)(C)C(=O)O)c3csc(N)n3)[C@H]2SC1 | 0.25 µg/mL (≈ 0.381 µM) | 32 µg/mL (≈ 48.7 µM) | 16 µg/mL (≈ 24.4 µM) | 1 µg/mL (≈ 1.52 µM) | 2 µg/mL (≈ 3.05 µM) | 1 µg/mL (≈ 1.52 µM) | 2 µg/mL (≈ 3.05 µM) | 16 µg/mL (≈ 24.4 µM) | – | – | – | – | – | – | – |
| CC(C)(O/N=C(\C(=O)N[C@@H]1C(=O)N2C(C(=O)[O-])=C(C[n+]3ccccc3)CS[C@H]12)c1csc(N)n1)C(=O)O [CEFTAZIDIME] | 0.25 µg/mL (≈ 0.457 µM) | 64 µg/mL (≈ 117 µM) | 64 µg/mL (≈ 117 µM) | 8 µg/mL (≈ 14.6 µM) | 1 µg/mL (≈ 1.83 µM) | 0.5 µg/mL (≈ 0.915 µM) | 2 µg/mL (≈ 3.66 µM) | 32 µg/mL (≈ 58.5 µM) | 0.125 µg/mL (≈ 0.229 µM) | 0.063 µg/mL (≈ 0.115 µM) | 8 µg/mL (≈ 14.6 µM) | 8 µg/mL (≈ 14.6 µM) | 0.063 µg/mL (≈ 0.115 µM) | 127 mg/kg | 2.83 mg/kg |
| CNCCCn1ccc2c1ccc[n+]2CC1=C(C(=O)[O-])N2C(=O)[C@@H](NC(=O)/C(=N\O[C@@H](C)C(=O)O)c3nc(N)sc3Cl)[C@H]2SC1 | 0.25 µg/mL (≈ 0.369 µM) | 4 µg/mL (≈ 5.91 µM) | 2 µg/mL (≈ 2.95 µM) | 0.5 µg/mL (≈ 0.738 µM) | 4 µg/mL (≈ 5.91 µM) | 1 µg/mL (≈ 1.48 µM) | 2 µg/mL (≈ 2.95 µM) | 8 µg/mL (≈ 11.8 µM) | 0.063 µg/mL (≈ 0.093 µM) | 0.032 µg/mL (≈ 0.0473 µM) | 2 µg/mL (≈ 2.95 µM) | 1 µg/mL (≈ 1.48 µM) | 0.016 µg/mL (≈ 0.0236 µM) | 5.32 mg/kg | 1.4 mg/kg |
| CO/N=C(\C(=O)N[C@@H]1C(=O)N2C(C(=O)[O-])=C(C[N+]3(C)CCCC3)CS[C@H]12)c1csc(N)n1 | 0.063 µg/mL (≈ 0.131 µM) | 32 µg/mL (≈ 66.6 µM) | – | – | 4 µg/mL (≈ 8.32 µM) | 0.5 µg/mL (≈ 1.04 µM) | 4 µg/mL (≈ 8.32 µM) | 64 µg/mL (≈ 133 µM) | 0.5 µg/mL (≈ 1.04 µM) | 0.032 µg/mL (≈ 0.0666 µM) | 2 µg/mL (≈ 4.16 µM) | 2 µg/mL (≈ 4.16 µM) | 0.5 µg/mL (≈ 1.04 µM) | – | – |
| CC[C@H](O/N=C(\C(=O)N[C@@H]1C(=O)N2C(C(=O)[O-])=C(C[n+]3cccc4c3ccn4CCCNC)CS[C@H]12)c1nc(N)sc1Cl)C(=O)O | 1 µg/mL (≈ 1.45 µM) | 4 µg/mL (≈ 5.79 µM) | 4 µg/mL (≈ 5.79 µM) | 1 µg/mL (≈ 1.45 µM) | 4 µg/mL (≈ 5.79 µM) | 1 µg/mL (≈ 1.45 µM) | 4 µg/mL (≈ 5.79 µM) | 16 µg/mL (≈ 23.1 µM) | 0.063 µg/mL (≈ 0.0911 µM) | 0.032 µg/mL (≈ 0.0463 µM) | 4 µg/mL (≈ 5.79 µM) | 1 µg/mL (≈ 1.45 µM) | 0.016 µg/mL (≈ 0.0231 µM) | – | – |
| CNCCCn1ccc2c1ccc[n+]2CC1=C(C(=O)[O-])N2C(=O)[C@@H](NC(=O)/C(=N\OC(C)(C)C(=O)O)c3nc(N)sc3Cl)[C@H]2SC1 | 1 µg/mL (≈ 1.45 µM) | 8 µg/mL (≈ 11.6 µM) | 4 µg/mL (≈ 5.79 µM) | 2 µg/mL (≈ 2.89 µM) | 8 µg/mL (≈ 11.6 µM) | 2 µg/mL (≈ 2.89 µM) | 4 µg/mL (≈ 5.79 µM) | 16 µg/mL (≈ 23.1 µM) | 0.063 µg/mL (≈ 0.0911 µM) | 0.032 µg/mL (≈ 0.0463 µM) | 4 µg/mL (≈ 5.79 µM) | 2 µg/mL (≈ 2.89 µM) | 0.008 µg/mL (≈ 0.0116 µM) | – | – |
